Data from ChEMBL document CHEMBL5543109, “Novel β-Hairpin Antimicrobial Peptide Containing the β-Turn Sequence of -NG- and the Tryptophan Zippers Facilitate Self-Assembly into Nanofibers, Exhibiting Excellent Antimicrobial Performance” (J Med Chem, 2024).
Converted amounts (≈) assume the structure as drawn. The source made the active and inactive calls. The rule behind the calls is not given here.

Columns and labels:
Staphylococcus aureus [1] = experiment: Additive antibacterial activity against Staphylococcus aureus 125 assessed as fractional inhibitory concentration index incubated for 18 hrs in presence of gentamycin by checkerboard assay; assay type: functional
[2] = Toxicity in BALB/c mouse infected with Staphylococcus aureus 794 assessed as increase in hair follicles at 1 mg/ml, ip pre-infected with bacteria for 24 hrs followed by compound addition and measured after 13 days by H and E staining based histopathological analysis; assay type: organism-based; settings: in vivo, 312 h, time 13 day
Staphylococcus aureus [3] = experiment: Synergistic antibacterial activity against methicillin resistant Staphylococcus aureus assessed as fractional inhibitory concentration index incubated for 18 hrs in presence of rifampin by checkerboard assay; assay type: functional
Bacillus subtilis [4] = experiment: Bactericidal activity against Bacillus subtilis ATCC 23857 incubated for 18 hrs by broth microdilution method; assay type: functional
Staphylococcus aureus [5] = experiment: Antibacterial activity against methicillin resistant Staphylococcus aureus 75 incubated for 18 hrs by broth microdilution method; assay type: functional
Staphylococcus aureus [6] = experiment: Synergistic antibacterial activity against methicillin resistant Staphylococcus aureus 75 assessed as fractional inhibitory concentration index incubated for 18 hrs in presence of rifampin by checkerboard assay; assay type: functional
[7] = Toxicity in BALB/c mouse infected with Staphylococcus aureus 794 assessed as increase in number of sweat glands at 1 mg/ml, ip pre-infected with bacteria for 24 hrs followed by compound addition and measured after 13 days by H and E staining based histopathological analysis; assay type: organism-based; settings: in vivo, 312 h, time 13 day
Staphylococcus aureus [8] = experiment: Additive antibacterial activity against Staphylococcus aureus assessed as fractional inhibitory concentration index incubated for 18 hrs in presence of polymyxin B by checkerboard assay; assay type: functional
Staphylococcus aureus [9] = experiment: Antibacterial activity against methicillin resistant Staphylococcus aureus 113 incubated for 18 hrs by broth microdilution method; assay type: functional
Pseudomonas aeruginosa [10] = experiment: Drug resistance against Pseudomonas aeruginosa assessed as fold increase in MIC after 40 consecutive days of passages by sequential passaging method; assay type: functional; settings: time 18 hrs
Staphylococcus aureus [11] = experiment: Antibacterial activity against Staphylococcus aureus infected in BALB/c mouse systemic infection model assessed as reduction in kidney bacterial load at 5 to 10 mg/kg, ip measured after 8 hrs; assay type: functional, organism-based; settings: dose 5-10 mg/kg
Staphylococcus aureus [12] = experiment: Synergistic antibacterial activity against methicillin resistant Staphylococcus aureus assessed as fractional inhibitory concentration index incubated for 18 hrs in presence of kanamycin by checkerboard assay; assay type: functional
Escherichia coli [13] = experiment: Additive antibacterial activity against rifampicin resistant Escherichia coli assessed as fractional inhibitory concentration index incubated for 18 hrs in presence of rifampin by checkerboard assay; assay type: functional
[14] = Acute toxicity in ip dosed mouse by karber method; assay type: organism-based; settings: in vivo, read-out: LD50
Staphylococcus aureus [15] = experiment: Additive antibacterial activity against methicillin resistant Staphylococcus aureus assessed as fractional inhibitory concentration index incubated for 18 hrs in presence of ciprofloxacin by checkerboard assay; assay type: functional
Pseudomonas aeruginosa [16] = experiment: Antibacterial activity against Pseudomonas aeruginosa ATCC 27853 incubated for 18 hrs by broth microdilution method; assay type: functional
Staphylococcus aureus [17] = experiment: Antibacterial activity against methicillin resistant Staphylococcus aureus incubated for 18 hrs by broth microdilution method; assay type: functional
[18] = Toxicity in BALB/c mouse infected with Staphylococcus aureus 794 assessed as hyperkeratosis at 1 mg/ml, ip pre-infected with bacteria for 24 hrs followed by compound addition and measured after 13 days by H and E staining based histopathological analysis; assay type: organism-based; settings: in vivo, 312 h, time 13 day
Escherichia coli [19] = experiment: […] antibacterial activity against Escherichia coli assessed as fractional inhibitory concentration index incubated for 18 hrs in presence of polymyxin B by checkerboard assay; assay type: functional
Staphylococcus aureus [20] = experiment: Antibacterial activity against Staphylococcus aureus 794 infected in BALB/c mouse skin wound infection model assessed as reduction in wound bacterial load at 1 mg/ml, ip administered at 1 hr interval for total 6 treatment and measured after 1 hr post last dose in presence of vancomycin; assay type: functional, organism-based; settings: time 7.0 hrs
Cell membrane [21] = experiment: Induction of cell membrane disruption in Escherichia coli assessed as PI uptake incubated for 2 hrs by PI staining based confocal laser scanning microscopy; assay type: cell membranes
Staphylococcus aureus [22] = experiment: Antibacterial activity against Staphylococcus aureus 794 infected in BALB/c mouse skin wound infection model assessed as wound healing at 1 mg/ml, ip pre-infected with bacteria for 24 hrs followed by compound addition and measured on day 4; assay type: functional, organism-based; settings: time 4.0 day
Erythrocyte = experiment: Hemolytic activity in mouse erythrocytes assessed as concentration required to cause 10% hemolysis incubated for 1 hr; assay type: toxicity, cell-based
Cell membrane [23] = experiment: Induction of cytoplasmic membrane depolarization in Staphylococcus aureus at 0.5 times MIC by DiSC3-5 dye based fluorescence method; assay type: cell membranes
[24] = Self-assembly property of compound in PBS assessed as beta-sheet protofibrils formation at 128 uM incubated for 30 mins by SEM analysis; assay type: physicochemical; settings: buffer, 0.5 h
Staphylococcus aureus [25] = experiment: Additive antibacterial activity against methicillin resistant Staphylococcus aureus assessed as fractional inhibitory concentration index incubated for 18 hrs in presence of gentamycin by checkerboard assay; assay type: functional
Pseudomonas aeruginosa [26] = experiment: Additive antibacterial activity against Pseudomonas aeruginosa assessed as fractional inhibitory concentration index incubated for 18 hrs in presence of rifampin by checkerboard assay; assay type: functional
Staphylococcus aureus [27] = experiment: Antibacterial activity against Staphylococcus aureus 794 infected in BALB/c mouse skin wound infection model assessed as reduction in wound area at 1 mg/ml, ip pre-infected with bacteria for 24 hrs followed by compound addition and measured on day 5 in presence of vancomycin; assay type: functional, organism-based; settings: time 5.0 day
Staphylococcus aureus [28] = experiment: Antibacterial activity against Staphylococcus aureus incubated for 18 hrs in presence of KCl by broth microdilution method; assay type: functional, organism-based
Staphylococcus aureus [29] = experiment: Synergistic antibacterial activity against rifampicin resistant Staphylococcus aureus assessed as fractional inhibitory concentration index incubated for 18 hrs in presence of rifampin by checkerboard assay; assay type: functional
Staphylococcus aureus [30] = experiment: Bactericidal activity against Staphylococcus aureus ATCC 25923 incubated for 18 hrs by broth microdilution method; assay type: functional
Cell membrane [31] = experiment: Induction of cell membrane disruption in Staphylococcus aureus assessed as PI uptake at 4 times MIC incubated for 2 hrs by PI staining based flow cytometry analysis (reference value: 15.9%); assay type: cell membranes
Staphylococcus aureus [32] = experiment: Additive antibacterial activity against methicillin resistant Staphylococcus aureus 75 assessed as fractional inhibitory concentration index incubated for 18 hrs in presence of gentamycin by checkerboard assay; assay type: functional
Pseudomonas aeruginosa [33] = experiment: Antibacterial activity against Pseudomonas aeruginosa incubated for 18 hrs in presence of ZnCl2 by broth microdilution method; assay type: functional, organism-based
Escherichia coli [34] = experiment: Antibacterial activity against Escherichia coli infected in BALB/c mouse systemic infection model assessed as reduction in spleen bacterial load at 5 mg/kg, ip measured after 24 hrs; assay type: functional, organism-based
[35] = Self-assembly property of compound in water assessed as beta-sheet formation by measuring particle size at 50 uM by […]; assay type: physicochemical; settings: buffer
Cell membrane [36] = experiment: Induction of outer membrane permeabilization in Escherichia coli at 4 times MIC measured immediately by NPN-dye based assay; assay type: cell membranes
Staphylococcus aureus [37] = experiment: Antibacterial activity against Staphylococcus aureus incubated for 18 hrs in presence of ZnCl2 by broth microdilution method; assay type: functional, organism-based
[38] = Toxicity in BALB/c mouse infected with Staphylococcus aureus 794 assessed as cell necrosis at 1 mg/ml, ip pre-infected with bacteria for 24 hrs followed by compound addition and measured after 13 days in presence of vancomycin by H and E staining based histopathological analysis; assay type: organism-based; settings: in vivo, 312 h, time 13 day
Bacillus subtilis [39] = experiment: Antibacterial activity against Bacillus subtilis ATCC 23857 incubated for 18 hrs by broth microdilution method; assay type: functional
Staphylococcus aureus [40] = experiment: Synergistic antibacterial activity against Staphylococcus aureus 125 assessed as fractional inhibitory concentration index incubated for 18 hrs in presence of bacitracin by checkerboard assay; assay type: functional

## NCCCC[C@@H](NC(=O)[C@H](N)Cc1c[nH]c2ccccc12)C(=O)N[C@H](Cc1c[nH]c2ccccc12)C(=O)N[C@H](CCCCN)C(=O)N[C@H](Cc1c[nH]c2ccccc12)C(=O)N[C@@H](CC(N)=O)C(=O)NCC(=O)N[C@H](Cc1c[nH]c2ccccc12)C(=O)N[C@H](CCCCN)C(=O)N[C@H](Cc1c[nH]c2ccccc12)C(=O)N[C@H](CCCCN)C(=O)N[C@H](Cc1c[nH]c2ccccc12)C(N)=O
Staphylococcus aureus [1]
  fractional inhibitory concentration index (FICI): 0.563
[2]
  Activity: Toxic
Staphylococcus aureus [3]
  fractional inhibitory concentration index (FICI): 0.313
Bacillus subtilis [4]
  MBC: 4 µM (≈ 7.27 µg/mL)
Staphylococcus aureus [5]
  MIC: 8 µM (≈ 14.5 µg/mL)
Staphylococcus aureus [6]
  fractional inhibitory concentration index (FICI): 0.313
[7]
  Activity: Toxic
Staphylococcus aureus [8]
  fractional inhibitory concentration index (FICI): 1
Staphylococcus aureus [9]
  MIC: 8 µM (≈ 14.5 µg/mL)
Pseudomonas aeruginosa [10]
  fold change (FC): 4
Staphylococcus aureus [11]
  Activity: Active
Staphylococcus aureus [12]
  fractional inhibitory concentration index (FICI): 0.313
Escherichia coli [13]
  fractional inhibitory concentration index (FICI): 0.563
[14]
  LD50: 230 mg/kg
Staphylococcus aureus [15]
  fractional inhibitory concentration index (FICI): 0.563
Pseudomonas aeruginosa [16]
  MIC: 4 µM (≈ 7.27 µg/mL)
Staphylococcus aureus [17]
  MIC: 8 µM (≈ 14.5 µg/mL)
[18]
  Activity: Non-Toxic
Escherichia coli [19]
  fractional inhibitory concentration index (FICI): 0.375
Staphylococcus aureus [20]
  Activity: Active
Cell membrane [21]
  Activity: Dose-Dependent Effect
Staphylococcus aureus [22]
  Activity: inactive
Erythrocyte
  MHC: > 512 µM
Cell membrane [23]
  Activity: inactive
[24]
  Activity: Active
Staphylococcus aureus [25]
  fractional inhibitory concentration index (FICI): 0.75
Pseudomonas aeruginosa [26]
  fractional inhibitory concentration index (FICI): 0.563
Staphylococcus aureus [27]
  Activity: Active
Staphylococcus aureus [28]
  Activity: Active
Staphylococcus aureus [29]
  fractional inhibitory concentration index (FICI): 0.375
Staphylococcus aureus [30]
  MBC: 8 µM (≈ 14.5 µg/mL)
Cell membrane [31]
  Activity: 95.5%
Staphylococcus aureus [32]
  fractional inhibitory concentration index (FICI): 0.625
Pseudomonas aeruginosa [33]
  Activity: Active
Escherichia coli [34]
  Activity: Active
[35]
  Activity: 126.5 nm
Cell membrane [36]
  Activity: 100%
Staphylococcus aureus [37]
  Activity: Active
[38]
  Activity: Toxic
Bacillus subtilis [39]
  MIC: 2 µM (≈ 3.64 µg/mL)
Staphylococcus aureus [40]
  fractional inhibitory concentration index (FICI): 0.5
